Results from PMC6836125, “Antiamoebic Activities of Indolocarbazole Metabolites Isolated from Streptomyces sanyensis Cultures” (Marine Drugs, 2019).
Like-named read-outs stand apart in the source and are kept apart here.

Legend:
A. castellanii Neff [1] = experiment: Anti-Acanthamoeba activity on trophozoites, alamarBlue colorimetric assay; assay type: cell-based, Acanthamoeba castellanii Neff; conditions: for IC50: 96 h, read-out: IC50 A. castellanii Neff
Method: (§1) The amoeba strain used in this study was the type strain: Acanthamoeba castellanii Neff (ATCC 30010) which was axenically grown in PYG medium (0.75% (w/v) proteose peptone, 0.75% (w/v) yeast extract and 1.5% (w/v) glucose) containing 40 µg/mL of gentamicin (Biochrom AG, Cultek, Granollers, Barcelona, Spain). The murine macrophages J774A.1 (ATCC TIB-67) cell line was cultured in RPMI 1640 medium supplemented with 10% fetal bovine serum at 37 °C and 5% CO2 atmosphere, was used for the cytotoxicity assays. Successively, the evaluated molecules were also tested against two clinical isolates, Acanthamoeba griffini, genotype T3 obtained in a previous study, and Acanthamoeba polyphaga genotype T4 ATCC 30461, both axenically grown in the same medium as A. castellanii Neff.
(§2) To evaluate the biological activity of the fractions and molecules, the anti-Acanthamoeba experiments were carried out using the alamarBlue® colorimetric assay, as it was previously described. Briefly, Acanthamoeba strain was seeded in triplicate on 96-well microtiter plates (ThermoFisher™, Waltham, MA, USA) with 50 µL from a stock solution of 5 × 10^4 cells/mL and 50 µL of serial dilutions of the evaluated molecules in each well (1% DMSO was used to dissolve the highest dose of the compounds with no effects on the parasites). Two reference treatments such as chlorhexidine (chlorhexidine digluconate; Alfa Aesar) and voriconazole (Sigma), were used as positive controls. Finally, the alamarBlue® Reagent (Life Technologies, Madrid, Spain) was placed into each well at an amount equal to 10% of the final volume. Plates were incubated for 96 h at 26 °C with a slight agitation until their measurement in the EnSpire® Multimode Plate Reader (Perkin Elmer, Madrid, Spain) using fluorescence, at 570/585 nm.
(§3) The percentage of the growth inhibition, 50% inhibitory concentration (IC50 or CC50), was calculated by nonlinear regression analysis with 95% confidence limits using Sigma Plot 12.0 statistical analysis software (Systat Software). All experiments were performed three times, and the mean values were also calculated. A paired two-tailed t-test was used for analysis of the data. Values of p < 0.05 were considered significant.

[2] = Cytotoxicity test, alamarBlue assay; assay type: cell-based, murine; conditions: mouse, 37 °C, mean ± SD
Method: as §1
The cytotoxicity effect of active molecules was evaluated in murine macrophage J774A.1 cell line (ATCC # TIB-67) following the same protocol described above for Acanthamoeba trophozoites. Then, plates containing alamarBlue® were incubated for 24 h at 37 °C in presence of CO2 at 5%.
as §3

A. polyphaga = experiment: Anti-Acanthamoeba activity on trophozoites, alamarBlue colorimetric assay; assay type: cell-based; conditions: 96 h, read-out: IC50 A. polyphaga
Method: as §1, §2, §3

A. griffini = experiment: as above; assay type: cell-based; conditions: 96 h, read-out: IC50 A. griffini
Method: as §1, §2, §3

A. castellanii Neff [3] = experiment: Double-stain assay (Hoechst 33342/PI) for programmed cell death determination; assay type: cell-based, Acanthamoeba castellanii Neff; conditions: IC90 concentration, 24 h
Method: 10^5 amoebas/well were incubated in a 24-well plate with the previously calculated IC90 of 7OSTS for 24 h. A double-stain apoptosis detection kit (Hoechst 33342/PI) (ThermoFisher™, Waltham, MA, USA) was used to carry out the experiment following the manufacturer’s recommendations. The images were obtained using the EVOS FL Cell Imaging System AMF4300, Life Technologies, USA. The double-staining pattern allows the identification of live cells with low level of fluorescence, cells undergoing PCD with a higher level of blue fluorescence (as chromatin condenses), and dead cells which will show low-blue and high-red fluorescence (as the propidium iodide stain enters the nucleus of dead cells).

[4] = system: A. castellanii Neff cysts; experiment: In vitro activity against cysts (cysticidal assay, alamarBlue); assay type: cell-based, Acanthamoeba castellanii Neff; conditions: mature cysts
Method: On the other side, cysticidal activity of 7OSTS (2) was determined also using the alamarBlue™ reagent and confirmed visually by inverted microscopy. Cysts of A. castellaniii Neff were prepared as previously described. First of all, trophozoites were transferred from PYG medium based cultures (trophozoite medium) to Neff’s encystment medium (NEM; 0.1 M KCl, 8 mM MgSO4·7H2O, 0.4 mM CaCl2·2H2O, 1 mM NaHCO3, 20 mM ammediol [2-amino-2-methyl-1,3-propanediol; Sigma Aldrich Chemistry Ltd., Madrid, Spain], pH 8.8, at 25 °C) and were cultured in this medium with gently shaking for a week in order to obtain mature cysts. In order to carry out the cysticidal assay, mature cysts were harvested and washed twice with PYG medium. Serial dilutions of 7OSTS (2) were made in PYG and place onto sterile 96-well microtiter plates. 5·10^4 mature cysts of Acanthamoeba/mL were added to the wells with 50 µL of 7OSTS (2) dilutions. After 7 days of incubation, the plate was centrifuged at 3000 rpm for 10 min. The supernatant was removed and replaced with 100 µL of fresh PYG medium in each well. Finally, 10 μL of the alamarBlue® Reagent was placed into each well. The plates were then incubated for 144 h at 28 °C and the emitted fluorescence was measured with the EnSpire® Multimode Plate Reader (Perkin Elmer, Madrid, Spain) using fluorescence, at 570/585 nm. […]

A. castellanii Neff [5] = experiment: Analysis of mitochondrial membrane potential (JC-1); assay type: cell-based, Acanthamoeba castellanii Neff; conditions: IC90, 24 h
Method: The use of JC-1 mitochondrial membrane potential detection kit (Cayman Chemical) it is possible to detect the collapse of an electrochemical gradient across the mitochondrial membrane during apoptosis process. 10^5 amoebas/mL were treated with IC90 of 7OSTS (2) for 24 h, the cells were centrifuged (1000 rpm × 10 min) and suspended in JC-1 buffer. Images were taken on the EVOS FL inverted microscope. The staining pattern allows the identification of two groups in a cellular population: live cells will show only red fluorescence, but cells with low mitochondrial potential (undergoing PCD) will show a higher level of green fluorescence.

A. castellanii Neff [6] = experiment: Plasma membrane permeability (SYTOX Green); assay type: cell-based, Acanthamoeba castellanii Neff; conditions: IC90, 24 h
Method: In order to detect alterations of the membrane permeability in treated cells, the SYTOX Green (ThermoFischer^TM) assay was performed. Briefly, 10^5 trophozoite were washed and incubated in saline solution with SYTOX Green at a final concentration of 1 μM for 15 min in darkness. After that, IC90 of 7OSTS (2) was added to the cells and incubated for 24 h. Cells were observed and pictures were taken on the EVOS FL inverted microscope.

A. castellanii Neff [7] = experiment: Measurement of ATP levels (CellTiter-Glo); assay type: cell-based, Acanthamoeba castellanii Neff; conditions: IC90, 24 h
Method: An appropriate level of ATP is necessary to maintain the cell metabolism. The effect of the drug on the ATP production was evaluated by incubating (10^5) of cells/mL with the previously calculated IC90 of 7OSTS (2) using the CellTiter-Glo Luminescent Cell Viability Assay. The luminescence of each assay was measured on the EnSpire®.

[8] = molecular target: cyclin-dependent kinase 4 (CDK4); parameters: method as in PMID 19132059, PMID 14552791; conditions: cited from earlier work
[9] = molecular target: calcium/calmodulin-dependent protein kinase II (CaMKII); parameters: method as in PMID 19132059, PMID 14552791; conditions: cited from earlier work
protein kinase C (PKC) = conditions: cited from earlier work
protein kinase A (PKA) = conditions: cited from earlier work
[10] = system: human lung, colon, and nasopharyngeal carcinoma cell lines; parameters: method as in PMID 3112080; conditions: read-out: IC50 cytotoxic activity; cited from earlier work
[11] = read-out: Macrophage J774A.1 CC50

| Compound | IC50 (A. castellanii Neff [1]; trophozoites, 26 °C, mean ± SD) [µM] | CC50 at 24 h ([2]; J774A.1 macrophage cells) [µM] | IC50 (A. polyphaga; trophozoites, 26 °C, mean ± SD) [µM] | IC50 (A. griffini; trophozoites, 26 °C, mean ± SD) [µM] | also measured |
| --- | --- | --- | --- | --- | --- |
| COC1C(=O)CC2OC1(C)n1c3ccccc3c3c4c(c5c6ccccc6n2c5c31)C(=O)NC4 (centres unmarked) [4’D4’OSTS (3), 4′-demethylamino-4′-oxostaurosporine] | 7.53 ± 0.73 | > 40 | > 40 | 23.9 ± 0.55 | – |
| CNC1CC2OC(C)(C1OC)n1c3ccccc3c3c4c(c5c6ccccc6n2c5c31)C(=O)NC4=O (centres unmarked) [7OSTS (2), 7-oxostaurosporine] | – | – | – | – | IC50 (A. castellanii Neff [1]): 0.83 ± 0.09 µM; IC90 (A. castellanii Neff [1]; read-out: IC90 concentration): 2910 ± 670 nM; Chromatin condensation (A. castellanii Neff [3]): induces chromatin condensation; CC50 at 24 h [2, 11]: 5.2 ± 1.75 µM; IC50 ([4]; Acanthamoeba castellanii): 920 ± 330 nM; Cyst viability ([4]; incubation up to 144 h): non-viable cysts were observed; Mitochondrial membrane potential (A. castellanii Neff [5]): decrease of the mitochondrial membrane potential; Plasma membrane permeability (A. castellanii Neff [6]): plasmatic membrane damage; IC50 (A. polyphaga): 5.51 ± 0.09 µM; IC50 (A. griffini): 0.96 ± 0.19 µM; ATP level compared to the negative control (A. castellanii Neff [7]): 45% |
| O=C1NC(=O)c2c1c1c3ccccc3[nH]c1c1[nH]c3ccccc3c21 [Arcyriaflavin A (7), arcyriaflavin A] | 7.32 ± 0.45 | – | 7.59 ± 0.73 | 7.53 ± 1.11 | IC50 [8]: 140 nM; IC50 [9]: 25 nM; IC50 (protein kinase C (PKC)): > 100 µM; IC50 (protein kinase A (PKA)): > 2 µM |
| [H]/N=C(\N/C(=N/[H])NCCCCCCNC(=N)NC(=N)Nc1ccc(Cl)cc1)Nc1ccc(Cl)cc1 [Chlorhexidine, chlorhexidine] | – | 7.4 ± 0.39 | 4.76 ± 0.08 | – | – |
| COC1=C(C)O[C@@H]2C[C@@]1(OC)n1c3ccccc3c3c4c(c5c6ccccc6n2c5c31)C(=O)NC4 [ICZ B (4), streptocarbazole B] | 6.83 ± 2.6 | > 40 | > 40 | 14.5 ± 0.38 | – |
| O=C1NCc2c1c1c3ccccc3[nH]c1c1[nH]c3ccccc3c21 [K252c (6), K252c] | 6.17 ± 0.73 | – | 5.59 ± 0.34 | 2.25 ± 0.32 | IC50 (protein kinase A (PKA)): 25.7 µM |
| CO[C@H]1[C@H](O)[C@@H](O)[C@H](n2c3c(Cl)cccc3c3c4c(c5c6cccc(Cl)c6[nH]c5c32)C(=O)NC4=O)O[C@@H]1CO [Rebeccamycin (5), rebeccamycin] | 5.37 ± 0.23 | – | 7.47 ± 0.61 | 5.02 ± 0.18 | IC50 [10]: 0.4 to 98 µM |
| CN[C@@H]1C[C@H]2O[C@@](C)([C@@H]1OC)n1c3ccccc3c3c4c(c5c6ccccc6n2c5c31)C(=O)NC4 [STS (1), staurosporine] | – | – | – | – | CC50 at 24 h [2, 11]: 8.74 ± 0.72 µM |
| C[C@@H](c1ncncc1F)[C@](O)(Cn1cncn1)c1ccc(F)cc1F [Voriconazole, voriconazole] | 0.94 ± 0.29 | 7.56 ± 0.77 | 10.1 ± 2.21 | 0.1 ± 0.02 | – |
